One data set relates to Alternaria solani. Put plainly: Alternaria test (tomato)/protective. In kind it is in vivo. Conditions: protective, 750 g/ha, evaluation 7 days after inoculation. How it is done:
To produce an appropriate preparation of active compound, 1 part by weight of active compound is mixed with the stated amounts of solvent and emulsifier, and the concentrate is diluted with water to the desired concentration.
To test for protective activity, young tomato plants are sprayed with the active compound preparation at the application rate indicated. One day after treatment, the plants are inoculated with a spore suspension of Alternaria solani and then stand at 100% relative humidity and 20° C. for 24 h. The plants subsequently stand at 96% relative humidity and a temperature of 20° C.
Evaluation is made 7 days after inoculation. 0% denotes an efficacy corresponding to that of the control while an efficacy of 100% means that no infestation is observed.

Another data set concerns Venturia inaequalis. Put plainly: Venturia test (apple)/protective. It counts as in vivo. The note with it: protective, 100 g/ha, evaluation 10 days following inoculation. How it is done:
(§1) To produce a suitable preparation of active compound, one part by weight of active compound is mixed with the stated amounts of solvent and emulsifier, and the concentrate is diluted with water to the desired concentration.
To test for protective activity, young plants are sprayed with the active compound preparation at the application rate indicated. After the spray coating has dried on, the plants are inoculated with an aqueous conidia suspension of the apple scab causative organism, Venturia inaequalis, and then remain in an incubation cabin for 1 day at about 20° C. and 100% relative humidity.
The plants are placed in a greenhouse at a temperature of about 15° C. and a relative humidity of about 90%.
Evaluation is made 10 days following inoculation. 0% denotes an efficacy corresponding to that of the control, whereas an efficacy of 100% means that no infestation is observed.

Data set [1] deals with Fusarium nivale (var. majus). Description: Fusarium nivale (var. majus) test (wheat)/protective. In kind it is in vivo. Conditions: protective, 500 g/ha, evaluation 4 days following inoculation. How it is done:
as §1
To test for protective activity, young plants are sprayed with the active compound preparation at the application rate indicated. After the spray coating has dried on, the plants are sprayed with a conidia suspension of Fusarium nivale (var. majus).
The plants are placed in a greenhouse under transparent incubation hoods at a temperature of about 15° C. and a relative humidity of about 100%.
Evaluation is made 4 days following inoculation. 0% denotes an efficacy corresponding to that of the control, whereas an efficacy of 100% means that no infestation is observed.

Structures are written as SMILES.

`NN(CC1CCCCC1)c1c(-c2c(F)cc(F)cc2F)c(Cl)nc2ncnn12` [drawing 50]: the Efficacy in % with Alternaria solani amounted to 94%. With `CN(C)Nc1c(-c2c(F)cc(F)cc2F)c(Cl)nc2ncnn12` [drawing 46], the Efficacy in % in the data set on Venturia inaequalis was 94%. In data set [1], `CCN(N)c1c(-c2c(F)cc(F)cc2F)c(Cl)nc2ncnn12` [drawing 44] came in with an Efficacy in % of 80%.

For `CC(C)(C)NNc1c(-c2c(F)cc(F)cc2F)c(Cl)nc2ncnn12` [drawing 51], the Efficacy in % in the data set with Alternaria solani was 94%. Take `CCCN(N)c1c(-c2c(F)cc(F)cc2F)c(Cl)nc2ncnn12` [drawing 43]: the Efficacy in % in data set [1] is 80%. Consider `CCCN(N)c1c(-c2c(F)cc(F)cc2F)c(Cl)nc2ncnn12` [drawing 47], for which the Efficacy in % in the data set with Alternaria solani is given as 94%. Compound `CCN(N)c1c(-c2c(F)cc(F)cc2F)c(Cl)nc2ncnn12` [drawing 48] registered an Efficacy in % in the data set on Alternaria solani of 89%. For `CN(C)Nc1c(-c2c(F)cc(F)cc2F)c(Cl)nc2ncnn12` [Example 1, 5-chloro-7-(2,2-dimethylhydrazino)-6-(2,4,6-trifluorophenyl)[1,2,4]-triazolo[1,5-a]pyrimidine], the melting point – broadly, the temperature, or range, at which the solid turns liquid – was in the range of 165 to 168 °C.

For the compound `C=CCNNc1c(-c2c(F)cc(F)cc2F)c(Cl)nc2ncnn12` [drawing 49], the Efficacy in % with Alternaria solani turned out to be 94%. For the compound `CNN(C)c1c(-c2c(F)cc(F)cc2F)c(Cl)nc2ncnn12` [drawing 45], in data set [1], the Efficacy in % was determined as 93%.

(Values after patent publication US7189680B2, “5-halo-6-aryl[1,2,4]triazolo[1,5-a]pyrimidin-7-amines” (Bayer Cropscience AG, priority 2001, dated 2007).)
